Key:
[1] = tested on: ceramidase (infant fecal extract); assay: CAST Ceramidase Activity Screening Test; type: biochemical; conditions: relative to positive control, above 1 enhancer, below 1 inhibitor, C5 ceramide substrate, 18 hours, 25° C., PBS pH=7.4
Experimental: Agents, such as botanical extracts and related compounds, for example, are tested for their ability to decrease the activity of ceramidase in a ceramidase/ceramide system. A decrease in the activity of ceramidase results in an increase in the level of ceramides. The Ceramidase Activity Screening Test is completed as follows:
Step 1: Preparation of Testing Solution Comprising Ceramidase (Fecal Extract), Agent, and Ceramide: Combine the following to prepare a 100 microliter test solution: (1) 10 microliters of agent where the agent is an aqueous solution or oil (if the agent is a powder solid, prepare 10 microliters of a 0.1 microgram/milliliter solution by dissolving the appropriate amount of powder or solid in Phosphate Buffered Saline, pH=7.4); (2) 10 microliters of infant fecal extract in Phosphate Buffered Saline, pH=7.4 prepared by extracting 1 gram of infant feces in 9 mL of Phosphate Buffered Saline, pH=7.4, and vortexing the extraction for about 2 minutes followed by centrifugation to remove any solids; (3) 10 microliters of 250 microgram/milliliter C5 ceramide in Phosphate Buffered Saline, pH=7.4; and (4) 70 microliters of Phosphate Buffered Saline, pH=7.4.
Step 2: Preparation of Control Testing Solution Comprising Ceramidase and Ceramide: Combine the following to prepare a 100 microliter test solution: (1) 10 microliters of infant fecal extract in Phosphate Buffered Saline, pH=7.4; (2) 10 microliters of 250 microgram/milliliter BIODIPY FL C5 ceramide (Molecular Probes, Eugene, Wash.) in Phosphate Buffered Saline, pH=7.4; and (3) 80 microliters of Phosphate Buffered Saline, pH=7.4. […]
Step 3: Illuminate each plate with a 364 nanometer light source and take pictures with a suitable camera, such as a digital Kodak DC 40. The digital image is transferred as a TIFF file to the Alpha Innotech Flourchem Plate Imaging System and analyzed as described above with similar positive (substrate and ceramidase) and negative (substrate and no enzyme) controls. […]

[2] = target: T1, sphingomyelinase (Bacillus cereus, UniProt P11889); assay: SAST Sphingomyelinase Activity Screening Test; type: biochemical; conditions: test band brightness divided by average of positive controls; above 1 enhancer, below 1 inhibitor; BODIPY FL C5-Sphingomyelin substrate, 30 minutes, 25° C., PBS pH=7.4
T1 construct: purchased Sigma Chemical, St. Louis, Mo; S7651
T1 sequence (P11889 28-333): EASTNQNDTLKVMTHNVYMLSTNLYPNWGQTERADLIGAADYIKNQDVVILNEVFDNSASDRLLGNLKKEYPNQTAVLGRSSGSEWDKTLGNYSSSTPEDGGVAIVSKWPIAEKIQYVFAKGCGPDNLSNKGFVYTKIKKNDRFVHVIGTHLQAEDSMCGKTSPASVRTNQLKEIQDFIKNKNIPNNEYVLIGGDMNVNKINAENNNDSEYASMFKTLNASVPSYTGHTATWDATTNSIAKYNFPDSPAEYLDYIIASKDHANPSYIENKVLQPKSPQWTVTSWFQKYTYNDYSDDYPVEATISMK
Experimental: Agents, such as botanical extracts and related compounds, for example, are tested for their ability to increase the activity of sphingomyelinase in a sphingomyelinase/sphingomyelin-containing system. An increase in the activity of sphingomyelinase results in an increase in the hydrolysis of sphingomyelin and an increased production of ceramide. The Sphingomyelinase Activity Screening Test to determine the efficacy of an agent is completed as follows:
Step 1: Preparation of Testing Solution Comprising Sphingomyelinase, Sphingomyelin, and Agent: Combine the following to prepare a 100 microliter test solution: (1) 10 microliters of agent (such as a botanical extract, for example) where the agent is an aqueous solution or oil (if the agent is a powder or solid, prepare 10 microliters of a 0.1 microgram/milliliter solution by dissolving the appropriate amount of powder or solid in Phosphate Buffered Saline, pH=7.4); (2) 10 microliters of a 0.1 microgram/milliliter sphingomyelinase (Catalogue No. S7651, Sigma Chemical, St. Louis, Mo. (or equivalent)) in Phosphate Buffered Saline, pH=7.4, solution; (3) 10 microliters of a 250 microgram/milliliter BODIPY FL C5-Sphingomyelin (Molecular Probes, Eugene, Oreg. (or equivalent)) in Phosphate Buffered Saline, pH=7.4, solution; and (4) 70 microliters of Phosphate Buffered Saline, pH=7.4.
Step 2: Preparation of Control Testing Solution Comprising Sphingomyelinase and Sphingomyelin: Combine the following to prepare a 100 microliter test solution: (1) 10 microliters of a 0.1 microgram/milliliter sphingomyelinase in Phosphate Buffered Saline, pH=7.4, solution; (2) 10 microliters of a 250 microgram/milliliter BODIPY FL C5-Sphingomyelin in Phosphate Buffered Saline, pH=7.4, solution; and (3) 80 microliters of Phosphate Buffered Saline, pH=7.4. […]

| Molecule | Effect on Ceramidase Activity [1] | Effect on Sphingomyelinase Activity [2] [Times Activity] |
| --- | --- | --- |
| CC(=O)Oc1c(C)c(C)c2c(c1C)CC[C@@](C)(CCC[C@H](C)CCC[C@H](C)CCCC(C)C)O2 [D1-alpha-Tocophenyl Acetate] | ≧1 Times Activity | 0.6 |
| Potassium Laureth Phosphate | No Effect | 0.1 |
| Sunflower Seedaminopropyl Morpholine Lactate | No Effect | 0.1 |
